Assay results reported in BindingDB's records for doi:10.1021/jm00083a002 (Ici Pharmaceuticals Group, 1992).
pIC50: −log10 of the molar value.

What was measured:
[1] = biological target: Prolyl 4-hydroxylase (Gallus gallus); assay: ChEBML_157453
Text: Inhibition of prolyl 4-hydroxylase activity by an indirect assay

[2] = biological target: prolyl 4-hydroxylase (Gallus gallus); assay: Compound was evaluated for inhibition of Prolyl 4-hydroxylase activity in cultured embryonic chick tendon cells

Structure (SMILES) | pIC50 [1] | pIC50 [2]
O=C(Nc1cccc(Cl)c1)c1ccc(C(=O)O)nc1 | 4.49 | –
CCOc1ccccc1NC(=O)c1ccc(C(=O)O)nc1 | 4.48 | –
O=C(Nc1ccc([N+](=O)[O-])cc1)c1ccc(C(=O)O)nc1 | 4.36 | –
O=C(O)c1ccc(NCc2ccc(F)cc2)cn1 | 4.51 | 4.10
O=C(Nc1ccc(C(=O)O)nc1)c1ccc(Cl)cc1 | 4.65 | –
COc1ccccc1NC(=O)c1ccc(C(=O)O)nc1 | 4.83 | –
CN(C)c1ccc(NC(=O)c2ccc(C(=O)O)nc2)cc1 | 5.39 | –
O=C(Nc1ccccc1Cl)c1ccc(C(=O)O)nc1 | 4.79 | –
O=C(O)c1ccc(OCc2ccccc2)cn1 | 4.41 | –
O=C(Nc1ccc(F)cc1)c1ccc(C(=O)O)nc1 | 4.79 | –
COc1cc(NC(=O)c2ccc(C(=O)O)nc2)cc(OC)c1OC | 4.58 | –
Cc1ccc(C(=O)Nc2ccc(C(=O)O)nc2)cc1 | 4.78 | –

Further lines, results first:

pIC50 [1] | pIC50 [2] | Structure (SMILES)
4.29 | – | O=C(Nc1ccc(C(=O)O)nc1)c1ccc(F)cc1
4.95 | – | CCOc1ccc(C(=O)Nc2ccc(C(=O)O)nc2)cc1
4.76 | – | O=C(Nc1ccc(Cl)cc1)c1ccc(C(=O)O)nc1
4.59 | – | O=C(Nc1ccc(C(=O)O)nc1)c1ccccc1
4.95 | – | CN(C)c1ccc(C(=O)Nc2ccc(C(=O)O)nc2)cc1
5.30 | – | CCOc1ccc(NC(=O)c2ccc(C(=O)O)nc2)cc1
4.96 | – | O=C(Nc1ccccc1F)c1ccc(C(=O)O)nc1
4.47 | – | O=C(O)c1ccc(NC(=O)c2ccccc2F)cn1
3.82 | – | O=C(O)c1ccc(/C=C/c2ccc(Cl)cc2)cn1
4.78 | – | COc1ccc(NC(=O)c2ccc(C(=O)O)nc2)c(OC)c1
5.08 | – | Cc1ccc(NC(=O)c2ccc(C(=O)O)nc2)cc1
4.68 | – | COc1ccc(NC(=O)c2ccc(C(=O)O)nc2)cc1
4.58 | – | O=C(Nc1ccccc1)c1ccc(C(=O)O)nc1
